≈ marks a conversion by molar mass, not a printed value. Where two headings read alike, the source gives them in different places.
What was measured:
[1] = tested on: MB 9798: MB 5919 Trans IMP1 plasmid (OprD+, efflux+); assay: microbe, parasite or virus in culture; format: cell-based, Pseudomonas aeruginosa
[2] = tested on: Pseudomonas aeruginosa MB 5890 (OprD+, efflux−); assay: microbe, parasite or virus in culture; format: cell-based
[3] = tested on: MB 5890 Trans pFlp-Vim2 plasmid (OprD+, efflux−); assay: microbe, parasite or virus in culture; format: cell-based, Pseudomonas aeruginosa
[4] = tested on: MB 5919 Trans pFlp-Vim2 plasmid (OprD+, efflux+); assay: microbe, parasite or virus in culture; format: cell-based, Pseudomonas aeruginosa
[5] = tested on: MB9862: MB 5890 Trans pFlp-Vim1 (OprD+, efflux−); assay: microbe, parasite or virus in culture; format: cell-based, Pseudomonas aeruginosa
[6] = tested on: MB 9861: MB 5919 Trans pFlp-Vim1 plasmid (OprD+, efflux+); assay: microbe, parasite or virus in culture; format: cell-based, Pseudomonas aeruginosa
[7] = tested on: Pseudomonas aeruginosa MB 5919 (OprD+, efflux+); assay: microbe, parasite or virus in culture; format: cell-based
[8] = tested on: MB 9799: MB 5890 Trans IMP1 plasmid (OprD+, efflux−); assay: microbe, parasite or virus in culture; format: cell-based, Pseudomonas aeruginosa
[9] = tested on: Pseudomonas aeruginosa efflux− (MB9799), IMP-1; format: cell-based; conditions: efflux− MB9799; imipenem at 2 μg/mL; in the presence of a class A, C, D serine β-lactamase inhibitor closely related to relebactam
Method in brief: (§1)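 P. aeruginosa PAO1-derived IMP-1 strains, efflux+ MB9798 and efflux− MB9799, tested by standard microbroth MIC with imipenem and/or ceftazidime fixed, usually at CLSI breakpoint, plus fixed class A/C β-lactamase inhibitor against AmpC. Inhibitor titrated; concentration restoring susceptibility recorded; MB9798/MB9799 fold difference indicates efflux.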

[10] = tested on: Escherichia coli expressing NDM-1 (CLB30005, CLB30016); format: cell-based; conditions: NDM-1 strain, with imipenem 1 μg/ml
Method in brief: (§2)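 Clinical strains grown overnight on blood agar at 35°C, colonies suspended in saline, diluted 1:100 into 1.1×CAMHB. Test compound titrated with imipenem at 1 μg/ml; incubated 22–24 h at 35°C, growth read by absorbance.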

[11] = tested on: Serratia marcescens expressing IMP-1 (CL5741); format: cell-based; conditions: IMP-1 strain CL5741, with imipenem 1 μg/ml
Method in brief: as §2

[12] = tested on: Klebsiella pneumoniae expressing VIM-1 (IHMA599644); format: cell-based; conditions: VIM-1 strain IHMA599644, with imipenem 1 μg/ml
Method in brief: as §2

[13] = molecular target: NDM-1 (Klebsiella pneumoniae, UniProt C7C422); assay: biochemical; format: biochemical; conditions: fluorescence assay, CCF2-FA substrate, 1 pM enzyme, 2 hours at 25° C.; read-out: NDM-1 IC50
Method in brief: (§3)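 Fluorescence assay, CCF2-FA substrate (cephalosporin core linking 7-hydroxycoumarin to fluorescein); inhibitor + MBL + substrate, 2 h, 25° C. IC50 by 4-parameter fit, semi-log plot.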

[14] = molecular target: IMP-1 (Serratia marcescens, UniProt P52699); assay: biochemical; format: biochemical; conditions: fluorescence assay, CCF2-FA substrate, 2 pM enzyme, 2 hours at 25° C.; read-out: IMP-1 IC50
Method in brief: as §3

[15] = molecular target: VIM-1 (Pseudomonas aeruginosa (strain ATCC 15692 / DSM 22644 / CIP 104116 / JCM 14847 / LMG 12228 / 1C / PRS 101 / PAO1), UniProt A0A0F7KYQ8); assay: biochemical; conditions: CCF2-FA substrate, 30 pM enzyme, 2 hours at 25° C.
Method in brief: as §3

[16] = tested on: Pseudomonas aeruginosa efflux+ (MB9798), IMP-1; format: cell-based; design: Concentration of metallo-β-lactamase inhibitor which restores susceptibility of efflux + (MB9798) strain to imipenem: unit not given here; conditions: efflux+ MB9798; imipenem at 2 μg/mL; in the presence of a class A, C, D serine β-lactamase inhibitor closely related to relebactam
Method in brief: as §1

[17] = tested on: Pseudomonas aeruginosa MB9798 vs MB9799; conditions: fold difference between efflux+ (MB9798) and efflux− (MB9799) strains; imipenem at 2 μg/mL
Method in brief: as §1

[18] = fluorescence assay, read-out: VIM-1 IC50
[19] = 95% inhibition of bacterial growth

NDM-1, sequence (C7C422 whole entry, looked up, species assumed): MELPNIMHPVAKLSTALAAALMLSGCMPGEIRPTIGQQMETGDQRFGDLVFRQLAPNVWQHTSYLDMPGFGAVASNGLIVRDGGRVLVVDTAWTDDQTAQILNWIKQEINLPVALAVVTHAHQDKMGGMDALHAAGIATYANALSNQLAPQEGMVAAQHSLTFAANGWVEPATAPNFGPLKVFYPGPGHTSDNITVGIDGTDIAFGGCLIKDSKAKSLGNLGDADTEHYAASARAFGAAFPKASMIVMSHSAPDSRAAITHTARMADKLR
IMP-1, sequence (P52699 whole entry, looked up, species assumed): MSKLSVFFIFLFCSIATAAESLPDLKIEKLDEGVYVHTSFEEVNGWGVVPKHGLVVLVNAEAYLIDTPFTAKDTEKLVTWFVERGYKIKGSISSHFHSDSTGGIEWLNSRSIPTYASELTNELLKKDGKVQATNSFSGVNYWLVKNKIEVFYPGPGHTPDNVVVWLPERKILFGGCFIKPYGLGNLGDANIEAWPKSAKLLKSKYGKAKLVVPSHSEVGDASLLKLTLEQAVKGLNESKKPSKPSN

Compound	Concentration of metallo-β-lactamase inhibitor which restores susceptibility of efflux − (MB9799) strain to imipenem [9]	IC50 [13]	IC50 [14]	Concentration of metallo-β-lactamase inhibitor which restores susceptibility of efflux + (MB9798) strain to imipenem [16]	Efflux ratio [17]	IC50 [15, 18]	Escherichia coli MITC95 [10, 19]	Serratia marcescens MITC95 [11, 19]	Klebsiella pneumoniae MITC95 [12, 19]	also measured
CC[C@H]1OC(=O)[C@H](C)[C@@H](O[C@H]2C[C@@](C)(OC)[C@@H](O)[C@H](C)O2)[C@H](C)[C@@H](O[C@@H]2O[C@H](C)C[C@H](N(C)C)[C@H]2O)[C@](C)(O)C[C@@H](C)CN(C)[C@H](C)[C@@H](O)[C@]1(C)O [Azithromycin]	–	–	–	–	–	–	–	–	–	MIC ([1]; Pseudomonas aeruginosa): 16 µg/mL (≈ 21.4 µM); MIC ([2]; Pseudomonas aeruginosa): 1 µg/mL (≈ 1.34 µM); MIC ([3]; Pseudomonas aeruginosa): 1 µg/mL (≈ 1.34 µM); MIC ([4]; Pseudomonas aeruginosa): 32 µg/mL (≈ 42.7 µM); MIC ([5]; Pseudomonas aeruginosa): 1 µg/mL (≈ 1.34 µM); MIC ([6]; Pseudomonas aeruginosa): 32 µg/mL (≈ 42.7 µM); MIC ([7]; Pseudomonas aeruginosa): 16 µg/mL (≈ 21.4 µM); MIC ([8]; Pseudomonas aeruginosa): 2 µg/mL (≈ 2.67 µM)
CC(C)(O/N=C(\C(=O)N[C@@H]1C(=O)N2C(C(=O)[O-])=C(C[n+]3ccccc3)CS[C@H]12)c1csc(N)n1)C(=O)O [CAZ, ceftazidime]	–	–	–	–	–	–	–	–	–	MIC ([1]; MB 9798 = MB 5919 Trans IMP1 plasmid, OprD+, efflux+): 256 µg/mL (≈ 468 µM); MIC ([2]; MB 5890, OprD+, efflux−): 0.5 µg/mL (≈ 0.915 µM); MIC ([3]; MB 5890 Trans pFlp-Vim2 plasmid, OprD+, efflux−): 64 µg/mL (≈ 117 µM); MIC ([4]; MB 5919 Trans pFlp-Vim2 plasmid, OprD+, efflux+): 128 µg/mL (≈ 234 µM); MIC ([5]; MB9862 = MB 5890 Trans pFlp-Vim1, OprD+, efflux−): >256 µg/mL; MIC ([6]; MB 9861 = MB 5919 Trans pFlp-Vim1 plasmid, OprD+, efflux+): >256 µg/mL; MIC ([7]; MB 5919, OprD+, efflux+): 1 µg/mL (≈ 1.83 µM); MIC ([8]; MB 9799 = MB 5890 Trans IMP1 plasmid, OprD+, efflux−): 256 µg/mL (≈ 468 µM)
O=C(N[C@H](CO)[C@H](O)c1ccc([N+](=O)[O-])cc1)C(Cl)Cl [Chloroamphenicol, chloramphenicol]	–	–	–	–	–	–	–	–	–	MIC ([1]; Pseudomonas aeruginosa): > 64 µg/mL; MIC ([2]; Pseudomonas aeruginosa): 1 µg/mL (≈ 3.09 µM); MIC ([3]; Pseudomonas aeruginosa): 1 µg/mL (≈ 3.09 µM); MIC ([4]; Pseudomonas aeruginosa): > 64 µg/mL; MIC ([5]; Pseudomonas aeruginosa): 2 µg/mL (≈ 6.19 µM); MIC ([6]; Pseudomonas aeruginosa): > 64 µg/mL; MIC ([7]; Pseudomonas aeruginosa): > 64 µg/mL; MIC ([8]; Pseudomonas aeruginosa): 1 µg/mL (≈ 3.09 µM)
Nc1ccc(-c2ccc(S(=O)(=O)NCC3(O)CCNCC3)c(S(N)(=O)=O)c2-c2nn[nH]n2)cn1 [Example 492, 4-(6-aminopyridin-3-yl)-N1-((4-hydroxypiperidin-4-yl)methyl)-3-(2H-tetrazol-5-yl)benzene-1,2 disulfonamide]	1.563	0.305 nM	0.52 nM	1.563	1.00	–	–	–	–	Escherichia coli MITC95 ([10]; 95% inhibition of growth): 0.3906 µM; Serratia marcescens MITC95 ([11]; 95% inhibition of growth): 1.563 µM; Klebsiella pneumoniae MITC95 ([12]; 95% inhibition of growth): 3.125 µM; IC50 ([15]; VIM-1 IC50, fluorescence assay): 0.24 nM
Nc1ccc(-c2ccc(S(=O)(=O)NC3CNC3)c(S(N)(=O)=O)c2-c2nn[nH]n2)cn1 [Example 493, 4-(6-aminopyridin-3-yl)-N1-(azetidin-3-yl)-3-(2H-tetrazol-5-yl)benzene-1,2-disulfonamide]	0.7813	0.189 nM	0.403 nM	0.3906	0.50	0.179 nM	–	–	–	Escherichia coli MITC95 ([10]; 95% inhibition of growth): 0.3906 µM; Serratia marcescens MITC95 ([11]; 95% inhibition of growth): 0.3906 µM; Klebsiella pneumoniae MITC95 ([12]; 95% inhibition of growth): 1.563 µM
Nc1ccc(-c2ccc(S(=O)(=O)NCC3(O)CNC3)c(S(N)(=O)=O)c2-c2nn[nH]n2)cn1 [Example 495, 4-(6-aminopyridin-3-yl)-N1-((3-hydroxyazetidin-3-yl)methyl)-3-(2H-tetrazol-5-yl)benzene-1,2-disulfonamide]	0.7813	0.215 nM	0.328 nM	0.7813	1.00	0.301 nM	–	–	–	Escherichia coli MITC95 ([10]; 95% inhibition of growth): 0.1953 µM; Serratia marcescens MITC95 ([11]; 95% inhibition of growth): 0.7813 µM; Klebsiella pneumoniae MITC95 ([12]; 95% inhibition of growth): 1.563 µM
Cl.Cl.NCCCNS(=O)(=O)c1ccc(-c2ccc(N)nc2)c(-c2nn[nH]n2)c1S(N)(=O)=O [Example 496, N1-(3-aminopropyl)-4-(6-aminopyridin-3-yl)-3-(2H-tetrazol-5-yl)benzene-1,2-disulfonamide hydrogen chloride]	0.7813	0.2 nM	0.576 nM	0.7813	1.00	0.175 nM	0.09766 µM	0.7813 µM	1.563 µM	–
CC1(NS(=O)(=O)c2ccc(-c3ccc(N)nc3)c(-c3nn[nH]n3)c2S(N)(=O)=O)CNC1.Cl.Cl [Example 497, 4-(6-aminopyridin-3-yl)-1-N-(3-methylazetidin-3-yl)-3-(2H-1,2,3,4-tetrazol-5-yl)benzene-1,2-disulfonamide hydrogen]	0.7813	0.131 nM	0.645 nM	0.7813	1.00	0.219 nM	0.3906 µM	0.7813 µM	1.563 µM	–
C[C@H](CCN)NS(=O)(=O)c1ccc(-c2ccc(N)nc2)c(-c2nn[nH]n2)c1S(N)(=O)=O [Example 498, (R)-N1-(4-aminobutan-2-yl)-4-(6-aminopyridin-3-yl)-3-(1H-tetrazol-5-yl)benzene-1,2-disulfonamide]	0.7813	0.0146 nM	0.0763 nM	0.7813	1.00	0.0512 nM	1.563 µM	1.563 µM	3.125 µM	–
C[C@@H](CCN)NS(=O)(=O)c1ccc(-c2ccc(N)nc2)c(-c2nn[nH]n2)c1S(N)(=O)=O [Example 499, (S)-N1-(4-aminobutan-2-yl)-4-(6-aminopyridin-3-yl)-3-(1H-tetrazol-5-yl)benzene-1,2-disulfonamide]	0.7813	0.555 nM	1.02 nM	0.7813	1.00	0.291 nM	0.7813 µM	1.563 µM	3.125 µM	–
NCCN1CC[C@@H](NS(=O)(=O)c2ccc(-c3ccc(N)nc3)c(-c3nn[nH]n3)c2S(N)(=O)=O)C1 [Example 500, (R)—N1-(1-(2-aminoethyl)pyrrolidin-3-yl)-4-(6-aminopyridin-3-yl)-3-(2H-tetrazol-5-yl)benzene-1,2-disulfonamide]	1.563	0.0347 nM	0.164 nM	1.563	1.00	0.071 nM	1.563 µM	1.563 µM	3.125 µM	–
